Measurements reported in patent publication US5958875A, “Synthetic peptides derivatives with nerve growth factor-like neurotrophic activity” (The Regents of the University of California, priority 1996, dated 1999).
Entries after “also recorded” stand apart in the source; their conditions may differ.

T1: NGF p75 receptor (Gallus gallus, UniProt P18519)
T1 construct: Dorsal root ganglia were dissected from embryonic day 8 chick embryos; endogenous in cells; host or cells: primary neurons dissociated from embryonic day 8 chick dorsal root ganglia
T1 sequence (P18519 20-416): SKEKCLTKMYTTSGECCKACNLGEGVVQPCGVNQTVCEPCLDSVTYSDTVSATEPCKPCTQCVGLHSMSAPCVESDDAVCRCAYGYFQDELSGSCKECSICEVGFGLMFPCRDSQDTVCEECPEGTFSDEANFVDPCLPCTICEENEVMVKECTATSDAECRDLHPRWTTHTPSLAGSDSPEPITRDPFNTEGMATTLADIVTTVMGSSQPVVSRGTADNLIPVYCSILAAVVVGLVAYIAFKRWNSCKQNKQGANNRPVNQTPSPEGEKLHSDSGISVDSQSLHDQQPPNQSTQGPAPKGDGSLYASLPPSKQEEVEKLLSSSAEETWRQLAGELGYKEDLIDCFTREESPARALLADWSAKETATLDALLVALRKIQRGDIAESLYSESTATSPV

B1: NGF: Mouse submaxillary β-NGF purified via 7S NGF (protein, UniProt P01139 122-241, looked up)
Beta-nerve growth factor: SSTHPVFHMGEFSVCDSVSVWVGDKTTATDIKGKEVTVLAEVNINNSVFRQYFFETKCRASNPVESGCRGIDSKHWNSYCTTTHTFVKALTTDEKQAAWRFIRIDTACVCVLSRKATRRG
modifications: Beta-nerve growth factor
notes: Mouse submaxillary β-NGF purified via 7S NGF

What was measured:
[1] = system: Chick embryo DRG neurons; experiment: morphological/MTT assay of neuronal survival; format: cell-based; details: HPLC fractions of cyclized/oxidized, scrambled and linear P7
Method: (§1) Bioassays were performed as previously described (Manthorpe et al, "An automated colorimetric microassay for neuronotrophic factors", Dev. Brain Res. 25:191-198 (1986)). Dorsal root ganglia were dissected from embryonic day 8 chick embryos and placed in calcium and magnesium-free Dulbecco's balanced salt solution on ice. […] During this incubation non-neuronal cells (Schwann cells, fibroblasts) more readily attached to the substratum leaving a supernatant containing an enriched neuronal population (80-85% neurons). […]
(§2) The bioassays used for measuring the NGF agonist activity of the compounds of this invention were initially characterized using NGF as a control. […] The neurotrophic activity of NGF is most easily assessed by measuring the number of cells surviving and bearing neurites; however, the lack of neurites in peptide-supported cultures required the use of additional criteria to assess peptide effect. In order to more accurately determine neuronal survival, MTT was added to cultures at 16 hours and cultures assessed under phase contrast microscopy at 24 hours. Intact cells characteristic of surviving neurons which also contained blue MTT product were counted. […] In subsequent studies, activity of both peptides and NGF was assessed by counting the number of intact cells with blue MTT product (morphological/MTT assay) and by the automated MTT assay. […]

[2] = system: Chick embryo DRG neurons; experiment: automated MTT neurotrophic assay; format: cell-based; details: HPLC fractions of ten cyclized/oxidized NGF 29-36 region peptides
Method: as §1, §2

[3] = system: Chick embryo DRG neurons; experiment: neurite outgrowth of cultured neurons; format: cell-based
Method: as §1
Neuronal survival and neurite outgrowth were assessed by a combination of morphological criteria described previously (Longo et al, "The in vitro biological effect of nerve growth factor is inhibited by synthetic peptides" Cell Regulation 1:189-195 (1990)) and an MTT calorimetric assay (Manthorpe et al., "An automated colorimetric microassay for neuronotrophic factors", Dev. Brain Res. 25:191-198 (1986)). […] The blue product can be quantitated by lysing cells with acid alcohol to solubilize the blue product and measuring overall optical density or by counting the number per area of intact surviving neurons with blue dye. […] For each peptide or NGF concentration, duplicate wells were counted in each bioassay and four values (two strips counted/well) averaged. In other assays, cells were lysed at 24 hours in acid alcohol and the MTT product was dissolved and quantified. […]

[4] = target: T1, NGF p75 receptor; experiment: survival-promoting activity in the presence of p75 antiserum (antibody 9651); format: cell-based, chick; details: p75 antiserum 1:100 final dilution; morphological/MTT assay
Method: Antiserum (antibody 9651) directed against the third and fourth cysteine rich repeats of the extracellular domain of mouse p75 was obtained as described in Huber (infra). […] Antiserum and control non-immune serum were tested at final dilutions of 1:100 in the presence of NGF or peptide.
To determine if activity of P7 and P7-scrambled peptides was dependent on p75 , their activity in the presence of p75 antiserum (1:100 final dilution) which inhibits NGF neurotrophic activity was measured. […] In 15 bioassays, control background survival was 14±2% (S.E.) of the NGF maximum compared to a background in the presence of p75 antiserum of 13±2% in 5 of the same 15 assays.

| Molecule | survival-promoting activity of P7 forms (in words) [1] | survival-promoting activity (in words) [2] | neurite outgrowth (in words) [3] | inhibition of survival-promoting activity by p75 antiserum, average over the three concentrations tested [4] |
| --- | --- | --- | --- | --- |
| IPenKGKEVCT [Peptide P7] | showed activity; also recorded: significantly greater activity than P7-scrambled peptides | highest activity at the lowest concentrations; also recorded: greatest survival-promoting activity at the lowest concentration | continued to lack neurites | – |
| B1 | – | – | – | 40% |
